The series is described as follows: in vitro. The conditions noted are these: human, hela cells, % viability.

Consider `O=C(CO)N1CC2(CCN(CC3COc4ccccc4O3)CC2)c2ccccc21` (stereo not drawn) [CBK143951], for which the viability at 28.5 h, 10 µM worked out at 105%. With `OCCN1CC2(CCN(CC3COc4ccccc4O3)CC2)c2ccccc21` (stereo not drawn) [CBK143955] the figure was 86.7%.

Consider `NC(=O)CN1CC2(CCN(CC3COc4ccccc4O3)CC2)c2ccccc21` (stereo not drawn) [CBK143960], for which the viability at 28.5 h, 10 µM was 89.4%. Take `CCN(CCCCC1NC(=O)NC1=O)Cc1ccncc1` (stereo not drawn) [CBK143967]: the viability at 28.5 h, 10 µM stood at 89.1%. In the case of `CS(=O)(=O)c1ccc(CN2CCC3(CCN(Cc4ccccc4)CC3)C2)cc1` [CBK144066T] it was 92.2%; in that of `Cc1onc(-c2ccccc2)c1CNC(=O)CC1CC1` [CBK144072], 85.4%. Regarding `Cc1onc(-c2ccccc2)c1CNC(=O)c1ccco1` [CBK144074], the viability at 28.5 h, 10 µM is 90.5%. As to `Cc1cc(C(=O)NCc2c(-c3ccccc3)noc2C)n[nH]1` [CBK144076], the viability at 28.5 h, 10 µM was 91.4%.

For the compound `Cc1onc(-c2ccccc2)c1CNC(=O)[C@@H]1CCCN1C` [CBK144077], the viability at 28.5 h, 10 µM was found to be 89.8%. In the case of `Cc1onc(-c2ccccc2)c1CNC(=O)CC1CCCCC1` [CBK144078] it was 89.1%; in that of `Cc1onc(-c2ccccc2)c1CNC(=O)c1cccc(C(F)(F)F)c1` [CBK144079], 93.6%. For `Cc1cc(CC(=O)NCc2c(-c3ccccc3)noc2C)on1` [CBK144090], the viability at 28.5 h, 10 µM came out at 92.2%. With `CSCCC(=O)NCc1c(-c2ccccc2)noc1C` [CBK144092] the figure was 85.9%. With `Cc1onc(-c2ccccc2)c1CNC(=O)Cn1cc(C)c(=O)[nH]c1=O` [CBK144094] the figure was 87.6%. For the compound `COc1cc(C(=O)NCc2c(-c3ccccc3)noc2C)cc(OC)c1OC` [CBK144097], the viability at 28.5 h, 10 µM was 93.9%. In the case of `Cc1onc(-c2ccccc2)c1CNC(=O)c1cncnc1` [CBK144098] it was 90.6%; in that of `CC1(C)CC(=O)c2sc(NC(=O)C3COc4ccccc4O3)nc2C1` (stereo not drawn) [CBK144104], 112%.

With `CC1(C)CC(=O)c2sc(NC(=O)c3ccc(Oc4ccccc4)cc3)nc2C1` [CBK144106], the viability at 28.5 h, 10 µM amounted to 95.5%. On to `CC1(C)CC(=O)c2sc(NC(=O)c3cncnc3)nc2C1` [CBK144107], for which the viability at 28.5 h, 10 µM turned out to be 101%. In the case of `O=C(CC1CC1)NC(c1ccccc1)c1ccccn1` (stereo not drawn) [CBK144108], the viability at 28.5 h, 10 µM was determined as 103%. For `O=C(NC(c1ccccc1)c1ccccn1)c1ccco1` (stereo not drawn) [CBK144109], the viability at 28.5 h, 10 µM was 106%. Turning to `O=C(Cc1ccc(Cl)c(Cl)c1)NC(c1ccccc1)c1ccccn1` (stereo not drawn) [CBK144110], the viability at 28.5 h, 10 µM came out at 92.8%. In the case of `CC1CCN(Cc2ccc(-c3nnn(CC(=O)NCc4ccc(S(C)(=O)=O)cc4)n3)cc2)CC1` [CBK144152C] it was 94.3%; in that of `CC1CCN(Cc2ccc(-c3nnn(CC(=O)NCc4ccc(O)cc4)n3)cc2)CC1` [CBK144156C], 90.9%; in that of `CC1CCN(Cc2ccc(-c3nnn(CC(=O)NCc4ccc([N+](=O)[O-])cc4)n3)cc2)CC1` [CBK144176C], 101%.

On to `O=C(O)CN1CCC(Oc2nccnc2OCc2ccc(Cl)c(Cl)c2)CC1` [CBK144443], for which the viability at 28.5 h, 10 µM amounted to 97%. In the case of `CS(=O)(=O)c1ccc(Cn2ccnc(N3CCC(Sc4ccccc4)CC3)c2=O)cc1` [CBK144444] it was 84.2%. Consider `CN(C)CCCC(=O)N1CCN(C(=O)c2ccco2)CC1` [CBK144445], for which the viability at 28.5 h, 10 µM was determined as 111%. With `O=C(Cc1ccsc1)N1CCN(C(=O)c2ccco2)CC1` [CBK144446] the figure was 86%. With `Cc1cc(C(=O)N2CCN(C(=O)c3ccco3)CC2)n[nH]1` [CBK144447] the figure was 98.9%; with `O=C(Cc1c[nH]cn1)N1CCN(C(=O)c2ccco2)CC1` [CBK144448], 91.9%. With `CN1CCC[C@H]1C(=O)N1CCN(C(=O)c2ccco2)CC1` [CBK144449] the figure was 94.5%; with `O=C(Cc1ccc(Cl)c(Cl)c1)N1CCN(C(=O)c2ccco2)CC1` [CBK144454], 95.2%; with `O=C(/C=C/c1ccc2c(c1)OCO2)N1CCN(C(=O)c2ccco2)CC1` [CBK144459], 95.1%. As to `O=C(c1ccc2ncccc2c1)N1CCN(C(=O)c2ccco2)CC1` [CBK144461], the viability at 28.5 h, 10 µM was 94%. Turning to `O=C1CC(C(=O)N2CCN(C(=O)c3ccco3)CC2)c2ccccc21` (stereo not drawn) [CBK144464], the viability at 28.5 h, 10 µM was 105%. Turning to `Cc1cc(CC(=O)N2CCN(C(=O)c3ccco3)CC2)on1` [CBK144465], the viability at 28.5 h, 10 µM came to 96.3%. With `CSCCC(=O)N1CCN(C(=O)c2ccco2)CC1` [CBK144468] the figure was 93.5%.

As for `Cc1cn(CC(=O)N2CCN(C(=O)c3ccco3)CC2)c(=O)[nH]c1=O` [CBK144472], the viability at 28.5 h, 10 µM stood at 87.7%. Regarding `CN1CCN(CCC(=O)N2CCN(C(=O)c3ccco3)CC2)CC1` [CBK144481], the viability at 28.5 h, 10 µM worked out at 89.3%. On to `COc1cc(CN2CCNCC2)c2ccn(S(=O)(=O)c3ccccc3Cl)c2c1` [CBK144483T], for which the viability at 28.5 h, 10 µM worked out at 91.9%. In the case of `COc1cc(CN2CCNCC2)c2ccn(S(=O)(=O)c3ccccc3C#N)c2c1` [CBK144486T], the viability at 28.5 h, 10 µM is 89.4%. Regarding `O=C(Cc1ccc(Cl)c(Cl)c1)N1CCN(c2ncccn2)CC1` [CBK144497], the viability at 28.5 h, 10 µM was 98%. On to `O=C(c1ccc2[nH]ccc2c1)N1CCN(c2ncccn2)CC1` [CBK144500], for which the viability at 28.5 h, 10 µM worked out at 87%. As for `O=C(/C=C/c1ccc2c(c1)OCO2)N1CCN(c2ncccn2)CC1` [CBK144501], the viability at 28.5 h, 10 µM was 89.5%.

On to `O=C(C1COc2ccccc2O1)N1CCN(c2ncccn2)CC1` (stereo not drawn) [CBK144502], for which the viability at 28.5 h, 10 µM was found to be 116%.

Take `O=C1CC(C(=O)N2CCN(c3ncccn3)CC2)c2ccccc21` (stereo not drawn) [CBK144505]: the viability at 28.5 h, 10 µM came to 99.2%. For `Cc1cc(CC(=O)N2CCN(c3ncccn3)CC2)on1` [CBK144507], the viability at 28.5 h, 10 µM is 90%. Turning to `Cc1cn(CC(=O)N2CCN(c3ncccn3)CC2)c(=O)[nH]c1=O` [CBK144513], the viability at 28.5 h, 10 µM stood at 105%. With `O=C(Cc1ccccc1)N1CCN(c2ncccn2)CC1` [CBK144518] the figure was 116%. In the case of `CN1CCN(CCC(=O)N2CCN(c3ncccn3)CC2)CC1` [CBK144520] it was 84.5%; in that of `CN(C)CCCC(=O)N1CCN(c2ncccn2)CC1` [CBK144523], 116%; in that of `O=C(c1ccco1)N1CCN(c2ncccn2)CC1` [CBK144524], 111%. In the case of `O=C(Cc1ccsc1)N1CCN(c2ncccn2)CC1` [CBK144525] it was 105%; in that of `Cc1cc(C(=O)N2CCN(c3ncccn3)CC2)n[nH]1` [CBK144526], 111%; in that of `Cc1ccc(CNC(=O)Cn2nnc(-c3ccc(CN4CCCC(C(F)(F)F)C4)cc3)n2)cc1` (stereo not drawn) [CBK144562C], 109%. In the case of `CS(=O)(=O)N1CC2(CCN(CC(=O)c3ccsc3)CC2)c2ccccc21` [CBK144595T], the viability at 28.5 h, 10 µM came out at 87%. In the case of `CCNC(=O)N1CC2(CCN(CCC(N)=O)CC2)c2ccccc21` [CBK144598T] it was 99.6%. With `CCNC(=O)N1CC2(CCN(CC(=O)c3ccsc3)CC2)c2ccccc21` [CBK144601T], the viability at 28.5 h, 10 µM is 88.6%. In the case of `O=C(CN1CCC2(CC1)CN(C(=O)CO)c1ccccc12)c1ccsc1` [CBK144605T] it was 86.8%.

In the case of `OCCN1CC2(CCN(CCc3c[nH]c4ccccc34)CC2)c2ccccc21` [CBK144607T], the viability at 28.5 h, 10 µM came to 94.2%. With `CCc1cc(NCCc2ccc(=O)[nH]c2)nc(-c2ccc(Br)cc2)n1` [CBK144610C] the figure was 93.3%.

Turning to `CS(=O)(=O)c1ccc(-c2ccc3c(c2)COC(C2CCN(C(=O)OCc4ccccc4)CC2)O3)cc1` (stereo not drawn) [CBK144643], the viability at 28.5 h, 10 µM was found to be 87.9%. In the case of `O=C(OCc1ccccc1)N1CCC(C2OCc3ccc(-c4ccc(Cl)c(Cl)c4)cc3O2)CC1` (stereo not drawn) [CBK144646] it was 109%; in that of `CN(C)C(=O)c1ccc(-c2ccc3c(c2)OC(C2CCN(C(=O)OCc4ccccc4)CC2)OC3)cc1` (stereo not drawn) [CBK144649], 85.5%; in that of `O=C(Cc1c(F)cccc1F)Nc1ccc2[nH]ccc2c1` [CBK144712], 120%.

For the compound `O=C(Nc1cccc(-c2nnn[nH]2)c1)c1ccc(Cl)c(Cl)c1` [CBK144713], the viability at 28.5 h, 10 µM was determined as 89.3%. Turning to `CN1CCN(C(=O)c2ccc(-c3cncc(-c4cc5ccccc5[nH]4)n3)c(F)c2)CC1` [CBK144906], the viability at 28.5 h, 10 µM amounted to 92.8%. With `Cc1nc2ccccc2c(SCCC(=O)O)c1Cc1ccccc1` [CBK144942T] the figure was 88.9%; with `NC1=NN(c2ccccc2)C(=O)C1` [CBK144946], 97.3%. For the compound `CN(C)CCN(Cc1ccccc1)C(=O)NCc1cccnc1` [CBK145048], the viability at 28.5 h, 10 µM is 89.6%. In the case of `CCN(Cc1ccncc1)C(=O)NCCN1CCOCC1` [CBK145055] it was 92.1%; in that of `COc1ccccc1-c1ncc(OCCN2CCOCC2)nc1N` [CBK145072], 113%; in that of `COc1ccc(-c2ncc(OCc3cccs3)nc2N)c(OC)c1` [CBK145088], 84%. With `COc1ccc(-c2ncc(OCC3CCCN3C)nc2N)c(OC)c1` (stereo not drawn) [CBK145091] the figure was 88.9%.

`Nc1nc(OCCOc2ccccc2)cnc1-c1ccc2c(c1)OCO2` [CBK145097]: the viability at 28.5 h, 10 µM is 83.4%. In the case of `COCOc1ccc(-c2ncc(OCCN3CCOCC3)nc2N)cc1` [CBK145100] it was 87.7%; in that of `COCc1cccc(-c2ncc(OCCN3CCCC3=O)nc2N)c1` [CBK145110], 93.6%. As to `COCc1cccc(-c2ncc(OCC3COc4ccccc4O3)nc2N)c1` (stereo not drawn) [CBK145113], the viability at 28.5 h, 10 µM stood at 93.1%. In the case of `CC(=O)Nc1cccc(Oc2cnc(-c3ccc(OC(F)(F)F)cc3)c(N)n2)c1` [CBK145119] it was 91.9%.

Consider `Nc1nc(OCc2ccc3c(c2)OCO3)cnc1/C=C/c1ccccc1` [CBK145123], for which the viability at 28.5 h, 10 µM is 92.7%.

These data come from article PMC12040169 (PLOS Biology, 2025).
